Measurements published in ChEMBL document CHEMBL4823314, “Design, synthesis and biological evaluation of novel acridine and quinoline derivatives as tubulin polymerization inhibitors with anticancer activities” (Bioorg Med Chem, 2021).
Calls of active or inactive are those of the source. The calls are words filed in the database; no cut-off is given here.

How the values were obtained:
[1] = system: B16-F10; assay: Antiproliferative activity against mouse B16-F10 cells assessed as reduction in cell viability measured after 48 hrs by MTT assay; type: functional, cell-based; conditions: B16-F10, 48 h
[2] = system: HepG2; assay: Antiproliferative activity against human HepG2 cells assessed as reduction in cell viability measured after 48 hrs by MTT assay; type: functional, cell-based; conditions: HepG2, 48 h
[3] = system: B16-F10; assay: Antiproliferative activity against mouse B16-F10 cells assessed as reduction in cell viability incubated for 48 hrs by MTT assay; type: functional, cell-based; conditions: dose 2.5-10 µM
[4] = system: HepG2; assay: Antiproliferative activity against human HepG2 cells assessed as reduction in cell viability incubated for 48 hrs by MTT assay; type: functional, cell-based; conditions: dose 2.5-10 µM
[5] = system: HeLa; assay: Antiproliferative activity against human HeLa cells assessed as reduction in cell viability incubated for 48 hrs by MTT assay; type: functional, cell-based; conditions: dose 2.5-10 µM
[6] = system: MCF7; assay: Antiproliferative activity against human MCF7 cells assessed as reduction in cell viability incubated for 48 hrs by MTT assay; type: functional, cell-based; conditions: dose 2.5-10 µM
[7] = system: B16-F10; assay: Antiproliferative activity against mouse B16-F10 cells assessed as reduction in cell viability at 0.5 uM by MTT assay; type: functional, cell-based; conditions: time 12-72 hrs, TDE = time-dependent effect
[8] = system: HepG2; assay: Antiproliferative activity against human HepG2 cells assessed as reduction in cell viability at 0.5 uM by MTT assay; type: functional, cell-based; conditions: time 12-72 hrs, TDE = time-dependent effect
[9] = system: HeLa; assay: Antiproliferative activity against human HeLa cells assessed as reduction in cell viability at 0.5 uM by MTT assay; type: functional, cell-based; conditions: time 12-72 hrs, TDE = time-dependent effect
[10] = system: MCF7; assay: Antiproliferative activity against human MCF7 cells assessed as reduction in cell viability at 0.5 uM by MTT assay; type: functional, cell-based; conditions: time 12-72 hrs, TDE = time-dependent effect
[11] = system: HepG2; assay: Inhibition of colony formation in human HepG2 cells incubated for 24 hrs by crystal violet staining based analysis; type: functional, cell-based; conditions: dose 0.1-1 µM
[12] = Inhibition of pig brain tubulin polymerization by spectrophotometric method; type: tissue-based, Sus scrofa
[13] = organism: Sus scrofa; assay: Inhibition of pig brain tubulin polymerization measured upto 20 mins by spectrophotometric method; conditions: dose 3-100 µM, time min <=20
[14] = system: HepG2; assay: Antimigratory activity in human HepG2 cells assessed as inhibition of cell migration incubated for 24 hrs by scratch wound healing assay; type: functional, cell-based; conditions: dose 0.1-1 µM
[15] = system: HepG2; assay: Cell cycle arrest in human HepG2 cells assessed as accumulation at G1 phase at 0.5 uM measured after 48 hrs by propidium iodide staining based flow cytometry analysis (reference value: 56.11%); type: functional
[16] = system: HepG2; assay: Cell cycle arrest in human HepG2 cells assessed as accumulation at G1 phase at 1 uM measured after 48 hrs by propidium iodide staining based flow cytometry analysis (reference value: 56.11%); type: functional
[17] = system: HepG2; assay: Cell cycle arrest in human HepG2 cells assessed as accumulation at G1 phase at 5 uM measured after 48 hrs by propidium iodide staining based flow cytometry analysis (reference value: 56.11%); type: functional
[18] = system: HepG2; assay: Cell cycle arrest in human HepG2 cells assessed as accumulation at S phase at 0.5 uM measured after 48 hrs by propidium iodide staining based flow cytometry analysis (reference value: 34.13%); type: functional
[19] = system: HepG2; assay: Cell cycle arrest in human HepG2 cells assessed as accumulation at S phase at 1 uM measured after 48 hrs by propidium iodide staining based flow cytometry analysis (reference value: 34.13%); type: functional
[20] = system: HepG2; assay: Cell cycle arrest in human HepG2 cells assessed as accumulation at S phase at 5 uM measured after 48 hrs by propidium iodide staining based flow cytometry analysis (reference value: 34.13%); type: functional
[21] = system: HepG2; assay: Cell cycle arrest in human HepG2 cells assessed as accumulation at G2/M phase at 0.5 uM measured after 48 hrs by propidium iodide staining based flow cytometry analysis (reference value: 9.27%); type: functional
[22] = system: HepG2; assay: Cell cycle arrest in human HepG2 cells assessed as accumulation at G2/M phase at 1 uM measured after 48 hrs by propidium iodide staining based flow cytometry analysis (reference value: 9.27%); type: functional
[23] = system: HepG2; assay: Cell cycle arrest in human HepG2 cells assessed as accumulation at G2/M phase at 5 uM measured after 48 hrs by propidium iodide staining based flow cytometry analysis (reference value: 9.27%); type: functional
[24] = system: HepG2; assay: Induction of apoptosis in human HepG2 cells assessed as necrotic cells at 0.5 uM measured after 48 hrs by AnnexinV-FITC/propidium iodide staining based flow cytometry (reference value: 1.05%); type: functional
[25] = system: HepG2; assay: Induction of apoptosis in human HepG2 cells assessed as necrotic cells at 1 uM measured after 48 hrs by AnnexinV-FITC/propidium iodide staining based flow cytometry (reference value: 1.05%); type: functional
[26] = system: HepG2; assay: Induction of apoptosis in human HepG2 cells assessed as necrotic cells at 5 uM measured after 48 hrs by AnnexinV-FITC/propidium iodide staining based flow cytometry (reference value: 1.05%); type: functional
[27] = system: HepG2; assay: Induction of apoptosis in human HepG2 cells assessed as late apoptotic cells at 0.5 uM measured after 48 hrs by AnnexinV-FITC/propidium iodide staining based flow cytometry (reference value: 5.93%); type: functional
[28] = system: HepG2; assay: Induction of apoptosis in human HepG2 cells assessed as late apoptotic cells at 1 uM measured after 48 hrs by AnnexinV-FITC/propidium iodide staining based flow cytometry (reference value: 5.93%); type: functional
[29] = system: HepG2; assay: Induction of apoptosis in human HepG2 cells assessed as late apoptotic cells at 5 uM measured after 48 hrs by AnnexinV-FITC/propidium iodide staining based flow cytometry (reference value: 5.93%); type: functional
[30] = system: HepG2; assay: Induction of apoptosis in human HepG2 cells assessed as viable cells at 0.5 uM measured after 48 hrs by AnnexinV-FITC/propidium iodide staining based flow cytometry (reference value: 82.2%); type: functional; conditions: read-out: Activity
[31] = system: HepG2; assay: Induction of apoptosis in human HepG2 cells assessed as viable cells at 1 uM measured after 48 hrs by AnnexinV-FITC/propidium iodide staining based flow cytometry (reference value: 82.2%); type: functional; conditions: read-out: Activity
[32] = system: HepG2; assay: Induction of apoptosis in human HepG2 cells assessed as viable cells at 5 uM measured after 48 hrs by AnnexinV-FITC/propidium iodide staining based flow cytometry (reference value: 82.2%); type: functional; conditions: read-out: Activity
[33] = system: HepG2; assay: Induction of apoptosis in human HepG2 cells assessed as early apoptotic cells at 0.5 uM measured after 48 hrs by AnnexinV-FITC/propidium iodide staining based flow cytometry (reference value: 10.8%); type: functional
[34] = system: HepG2; assay: Induction of apoptosis in human HepG2 cells assessed as early apoptotic cells at 1 uM measured after 48 hrs by AnnexinV-FITC/propidium iodide staining based flow cytometry (reference value: 10.8%); type: functional
[35] = system: HepG2; assay: Induction of apoptosis in human HepG2 cells assessed as early apoptotic cells at 5 uM measured after 48 hrs by AnnexinV-FITC/propidium iodide staining based flow cytometry (reference value: 10.8%); type: functional
[36] = system: HepG2; assay: Inhibition of colony formation in human HepG2 cells at 1 uM incubated for 24 hrs by crystal violet staining based analysis; type: functional, cell-based
[37] = system: HepG2; assay: Disruption of microtubule network in human HepG2 cells incubated for 12 hrs by DAPI staining based immunofluorescence analysis; type: functional, cell-based; conditions: dose 0.1-1 µM
[38] = system: HeLa; assay: cells; conditions: Homo sapiens, 48 h
Description: Antiproliferative activity against human HeLa cells assessed as reduction in cell viability measured after 48 hrs by MTT assay

[39] = system: MCF7; assay: cells; conditions: Homo sapiens, MCF7, 48 h
Description: Antiproliferative activity against human MCF7 cells assessed as reduction in cell viability measured after 48 hrs by MTT assay

COc1ccc(N(C)c2cccc3ncccc23)cc1
IC50 [1]: 0.563 µM | IC50 [2]: 0.261 µM | Activity [3]: Dose-Dependent Effect | Activity [4]: Dose-Dependent Effect | Activity [5]: Dose-Dependent Effect | Activity [6]: Dose-Dependent Effect | Activity [7]: Tde | Activity [8]: Tde | Activity [9]: Tde | Activity [10]: Tde | inhibition [11]: Dose-Dependent Effect | IC50 [12]: 12.4 µM | inhibition [13]: Dose-Dependent Effect | Activity [14]: Dose-Dependent Effect | Activity [15]: 42.3% | Activity [16]: 32.66% | Activity [17]: 38% | Activity [18]: 38.55% | Activity [19]: 38.01% | Activity [20]: 30.88% | Activity [21]: 17.46% | Activity [22]: 27.32% | Activity [23]: 32.13% | Activity [24]: 2.58% | Activity [25]: 1.38% | Activity [26]: 2.5% | Activity [27]: 23.3% | Activity [28]: 28.5% | Activity [29]: 39.4% | viability at 0.5 µM [30]: 25.2% | viability at 1 µM [31]: 10.6% | viability at 5 µM [32]: 19.3% | Activity [33]: 48.9% | Activity [34]: 59.6% | Activity [35]: 38.8% | inhibition [36]: Active | Activity [37]: Active | IC50 [38]: 2.05 µM | IC50 [39]: 0.609 µM
